Measurements reported in paper PMC3929971 (Chemistry (Weinheim an der Bergstrasse, Germany), 2013).

Target: T1, Mtb MraY (phospho-MurNAc-pentapeptide translocase, translocase I) (Mycobacterium tuberculosis, UniProt P9WMW7)
T1 sequence (P9WMW7 1-359): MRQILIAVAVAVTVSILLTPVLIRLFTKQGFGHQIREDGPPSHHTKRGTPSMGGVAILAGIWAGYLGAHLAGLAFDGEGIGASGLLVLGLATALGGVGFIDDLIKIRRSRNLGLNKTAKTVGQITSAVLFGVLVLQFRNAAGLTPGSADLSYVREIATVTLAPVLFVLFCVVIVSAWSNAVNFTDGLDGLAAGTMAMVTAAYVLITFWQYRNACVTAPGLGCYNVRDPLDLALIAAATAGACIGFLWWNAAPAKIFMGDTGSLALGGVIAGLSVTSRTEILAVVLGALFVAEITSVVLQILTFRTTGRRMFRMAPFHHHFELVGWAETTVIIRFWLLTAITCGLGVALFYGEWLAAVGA
Assay: MraY enzyme inhibition
Assay type: biochemical

Structure (SMILES): CO[C@H]1[C@@H](O)[C@H](n2ccc(=O)[nH]c2=O)O[C@@H]1[C@@H](O[C@H]1OC(C(=O)N[C@H]2CCCCNC2=O)=C[C@H](O)[C@@H]1O)C(N)=O [compound 1, Capuramycin]
- IC50: 18 nM
